Data: US9937161B2, “Combinatorial compositions and methods for treatment of melanoma” (THE GENERAL HOSPITAL CORPORATION, priority 2013, dated 2018)

Tests used:
[1] = test system: MEK1/2; settings: cited from earlier work
[2] = test system: melanoma cell lines; experiment: phospho-ERK Western blot, MEK inhibitor; assay type: cell-based; settings: 10 nM, 24 h; all cell lines tested, including BRAF wild-type MeWo
Experimental: Whole cell lysates were prepared in lysis buffer supplemented with protease and phosphatase inhibitors (Roche). Equal amounts of protein were resolved by electrophoresis on gradient gels (Bio-Rad).
Antibodies used were as follows: MITF (C5 hybridoma); PGC1α (Calbiochem); α-tubulin (clone DM1A, Sigma); GAPDH, phospho-ERK1/2, and ERK1/2 (Cell Signaling Technology). Melanoma biopsies prior and during treatment were sectioned, embedded in paraffin and stained with the phospho-ERK1/2 antibody (Cell Signaling Technology). PLX4720 was used at 1 μM concentration in all assays, whereas control samples were treated with an equal volume of DMSO.

[3] = test system: 12 breast, lung, colon and melanoma cell lines; experiment: Public microarray (GSE10086) of PGC1α mRNA; settings: 10 nM, 24 h; p<0.0001
Experimental: Gene profiles were analyzed by GenePattern, genomic analysis platform (Broad Institute of Harvard and MIT) or dChip. PGC1α mRNA expression was compared to the expression of all known and sequence-predicted human transcription factors (Medical Research Council United kingdom, DBD: Transcription factor prediction database) by Pearson correlation analysis using the GeneNeighbors module of Gene Pattern. Gene set enrichment analysis was performed using GSEA module of GenePattern.

[4] = test system: melanoma cell lines; experiment: PGC1α mRNA by quantitative PCR, MEK inhibitor; settings: 10 nM, 24 h; all cell lines tested, including BRAF wild-type MeWo
Experimental: (§2) Total RNA was isolated using RNEASY® RNA kits (QIAGEN®) and quantitative real-time PCR was performed on an Applied Biosystems 7700 machine.

[5] = test system: TRPM1 and other direct targets of MITF; experiment: Expression of MITF targets (microarray, qtPCR); settings: published microarrays and qtPCR
Experimental: as §2

[6] = test system: BRAF-mutant non-melanomas; experiment: Gene set enrichment analysis of non-melanomas treated with PD0325901
Experimental: (§3) Gene profiles were analyzed by GenePattern, genomic analysis platform (Broad Institute of Harvard and MIT) or dChip. […] Gene set enrichment analysis was performed using GSEA module of GenePattern.
(§4) Global gene expression analysis was carried out using HG-U133A microarrays (Affymetrix).
(§5) FDR, false-discovery rate; FWER, family-wise error rate; ES, enrichment score; NES, normalized enrichment score; Size refers to gene set size.

[7] = test system: melanoma cell lines; experiment: Gene set enrichment analysis of melanoma cell lines treated with PD0325901
Experimental: as §3, §4, §5

[8] = test system: MEK; settings: cited from earlier work
[9] = test system: apoptosis; experiment: Apoptosis, tigecycline with PLX4720; assay type: cell-based; settings: combination with PLX4720
[10] = test system: KIT mutated melanoma; settings: case reports, retrospective and phase II studies; cited from earlier work
[11] = test system: melanoma cells (M14); experiment: Cell number, mitochondrial inhibitors combined with PLX4720
Experimental: (§1) Melanoma cell were treated for 24 h with PLX4720 then mitochondrial uncoupler for 48 h, prior to estimation of cell number.
as §1
Cell number was calculated using the CYQUANT® assay (INVITROGEN™) or crystal violet staining. Lactate measurements were done using the Lactate Assay (BioVision or SIGMA®) per manufacturer's protocols. Indicated cell lines were plated in complete media overnight. Media was changed to serum free-media to avoid interference with the assay for 16 h with either PLX4720 (3 μM) or PLX4032 (1 μM) or vehicle control prior to harvesting cells and measurement of lactate. Results were normalized to cell number. All assays were performed in logarithmically growing cells.

[12] = PD0325901, non-melanomas (N=7), gene set size 16
[13] = PD0325901, non-melanomas (N=7), gene set size 17
[14] = PD0325901, non-melanomas (N=7), gene set size 19
[15] = PD0325901, non-melanomas (N=7), gene set size 21
[16] = PD0325901, non-melanomas (N=7), gene set size 22
[17] = PD0325901, non-melanomas (N=7), gene set size 27
[18] = PD0325901, non-melanomas (N=7), gene set size 29
[19] = PD0325901, non-melanomas (N=7), gene set size 53
[20] = PD0325901, non-melanomas (N=7), gene set size 55
[21] = PD0325901, non-melanomas (N=7), gene set size 65
[22] = PD0325901, non-melanomas (N=7), gene set size 66
[23] = PD0325901, non-melanomas (N=7), gene set size 73
[24] = PD0325901 treated melanoma cell lines (n = 5), gene set size 15
[25] = PD0325901 treated melanoma cell lines (n = 5), gene set size 17
[26] = PD0325901 treated melanoma cell lines (n = 5), gene set size 19
[27] = PD0325901 treated melanoma cell lines (n = 5), gene set size 20
[28] = PD0325901 treated melanoma cell lines (n = 5), gene set size 21
[29] = PD0325901 treated melanoma cell lines (n = 5), gene set size 22
[30] = PD0325901 treated melanoma cell lines (n = 5), gene set size 24
[31] = PD0325901 treated melanoma cell lines (n = 5), gene set size 28
[32] = PD0325901 treated melanoma cell lines (n = 5), gene set size 44
[33] = PD0325901 treated melanoma cell lines (n = 5), gene set size 49
[34] = PD0325901 treated melanoma cell lines (n = 5), gene set size 55
[35] = PD0325901 treated melanoma cell lines (n = 5), gene set size 76
[36] = PD0325901 treated melanoma cell lines (n = 5), gene set size 107

Cc1cc(C(=O)NOCCO)c(Nc2ccc(I)cc2F)n(C)c1=O [AZD8330]
IC50 [1]: 7 nM

O=C(NOC[C@H](O)CO)c1ccc(F)c(F)c1Nc1ccc(I)cc1F [PD0325901]
ERK phosphorylation [2]: Suppression
PGC1α mRNA (public microarray) [3]: only affected PGC1α mRNA in melanoma cell lines
PGC1α mRNA [4]: induction
expression of TRPM1 and other direct targets of MITF [5]: induced
enrichment of oxidative phosphorylation or citric acid cycle gene sets ([6]; BRAF-mutant non-melanomas treated with PD0325901): no enrichment
ES, INSULIN_NIH3T3_UP [6, 12]: −0.6535
NES, INSULIN_NIH3T3_UP [6, 12]: −1.926
ES, ERK5PATHWAY [6, 13]: −0.4831
ES, SCHURINGA_STAT5A_DN [6, 13]: −0.6396
NES, ERK5PATHWAY [6, 13]: −1.639
NES, SCHURINGA_STAT5A_DN [6, 13]: −1.67
ES, PASSERINI_OXIDATION [6, 14]: −0.5358
NES, PASSERINI_OXIDATION [6, 14]: −1.657
ES, LOTEM_LEUKEMIA_UP [6, 15]: −0.6144
ES, ST_GA12_PATHWAY [6, 15]: −0.5512
NES, LOTEM_LEUKEMIA_UP [6, 15]: −1.935
NES, ST_GA12_PATHWAY [6, 15]: −1.683
ES, MPRPATHWAY [6, 16]: −0.5726
NES, MPRPATHWAY [6, 16]: −1.724
ES, HSA00566_ETHER_LIPID_METABOLISM [6, 17]: −0.6099
ES, HSA00591_LINOLEIC_ACID_METABOLISM [6, 17]: −0.6262
NES, HSA00566_ETHER_LIPID_METABOLISM [6, 17]: −1.836
NES, HSA00591_LINOLEIC_ACID_METABOLISM [6, 17]: −1.85
ES, HDACPATHWAY [6, 18]: −0.524
NES, HDACPATHWAY [6, 18]: −1.695
ES, HDACI_COLON_CLUSTER9 [6, 19]: −0.4566
NES, HDACI_COLON_CLUSTER9 [6, 19]: −1.716
ES, HSA00010_GLYCOLYSIS_AND_GLUCONEOGENESIS [6, 20]: −0.4307
NES, HSA00010_GLYCOLYSIS_AND_GLUCONEOGENESIS [6, 20]: −1.651
ES, MUNSHI_MM_UP [6, 21]: −0.4503
NES, MUNSHI_MM_UP [6, 21]: −1.811
ES, HSA04370_VEGF_SIGNALING_PATHWAY [6, 22]: −0.4932
NES, HSA04370_VEGF_SIGNALING_PATHWAY [6, 22]: −1.946
ES, HSA04664_FC_EPSILON_RI_SIGNALING_PATHWAY [6, 23]: −0.4516
NES, HSA04664_FC_EPSILON_RI_SIGNALING_PATHWAY [6, 23]: −1.711
ES, SARCOMAS_LEIOMYOSARCOMA_CALP_UP [7, 24]: −0.5939
NES, SARCOMAS_LEIOMYOSARCOMA_CALP_UP [7, 24]: −1.618
ES, TIS7_OVEREXP_DN [7, 25]: −0.6059
NES, TIS7_OVEREXP_DN [7, 25]: −1.666
ES, ATP_SYNTHESIS [7, 26]: −0.5886
ES, FLAGELLAR_ASSEMBLY [7, 26]: −0.5886
ES, TYPE_III_SECRETION_SYSTEM [7, 26]: −0.5886
NES, ATP_SYNTHESIS [7, 26]: −1.651
NES, FLAGELLAR_ASSEMBLY [7, 26]: −1.651
NES, TYPE_III_SECRETION_SYSTEM [7, 26]: −1.651
ES, PHOTOSYNTHESIS [7, 27]: −0.5675
NES, PHOTOSYNTHESIS [7, 27]: −1.596
ES, PHENYLALANINE_METABOLISM [7, 28]: −0.5653
NES, PHENYLALANINE_METABOLISM [7, 28]: −1.644
ES, BRENTANI_CYTOSKELETON [7, 29]: −0.5522
NES, BRENTANI_CYTOSKELETON [7, 29]: −1.762
ES, LIAN_MYELOID_DIFF_GRANULE [7, 30]: −0.6115
NES, LIAN_MYELOID_DIFF_GRANULE [7, 30]: −1.565
ES, TYROSINE_METABOLISM [7, 31]: −0.5609
NES, TYROSINE_METABOLISM [7, 31]: −1.668
ES, HPV31_DN [7, 32]: −0.511
NES, HPV31_DN [7, 32]: −1.584
ES, GLUCONEOGENESIS [7, 33]: −0.455
NES, GLUCONEOGENESIS [7, 33]: −1.548
ES, OXIDATIVE_PHOSPHORYLATION [7, 34]: −0.5314
NES, OXIDATIVE_PHOSPHORYLATION [7, 34]: −1.765
ES, VANASSE_BCL2_TARGETS [7, 35]: −0.3981
NES, VANASSE_BCL2_TARGETS [7, 35]: −1.55
ES, TPA_RESIST_MIDDLE_DN [7, 36]: −0.3946
NES, TPA_RESIST_MIDDLE_DN [7, 36]: −1.586
citric acid cycle and oxidative phosphorylation gene sets ([7]; melanoma cells treated with PD0325901): trend towards induction

Cn1c(=O)c(F)c(Nc2ccc(I)cc2F)c2c(=O)n(C[C@@H](O)CO)cnc21 [TAK-733]
IC50 [8]: 3.2 nM

CN(C)c1cc(NC(=O)CNC(C)(C)C)c(O)c2c1C[C@H]1C[C@H]3[C@H](N(C)C)C(O)=C(C(N)=O)C(=O)[C@@]3(O)C(O)=C1C2=O [tigecycline, N-[(5aR,6aS,7S,9Z,10aS)-9-[amino(hydroxy)methylidene]-4,7-bis(dimethylamino)-1,10a,12-trihydroxy-8,10,11-trioxo-5,5a,6,6a,7,8,9,10,10a,11-decahydrotetracen-2-yl]-2-(tert-butylamino)acetamide]
apoptosis induced by BRAF inhibitor PLX4720 [9]: strongly potentiates apoptosis

CNC(=O)c1cc(Oc2ccc(NC(=O)Nc3ccc(Cl)c(C(F)(F)F)c3)cc2)ccn1 [sorafenib]
clinical responses [10]: clinical responses

CC[C@@H]1/C=C/C=C/C[C@H](C)[C@H](O)[C@](C)(O)C(=O)[C@H](C)[C@@H](O)[C@H](C)C(=O)[C@H](C)[C@@H](O)[C@H](C)/C=C/C(=O)O[C@H]2[C@@H](C)[C@@H](CC1)O[C@@]1(CC[C@@H](C)[C@@H](C[C@H](C)O)O1)[C@@H]2C [oligomycin A]
Combination Index with PLX4720 (additively enhanced the efficacy of PLX4720) ([11]; in vitro, cell number after 72 hrs): 0.9

N#CC(C#N)=NNc1cccc(Cl)c1 [CCCP]
sensitivity of cells to the agent alone ([11]; M14 cells, 72 hrs): relatively insensitive
